From article PMC2222763 (The Journal of General Physiology, 1998)
Several values for one entry are separate records, joined by “and”; a condition that tells them apart may be missing. Identical values can stand only once. Like-named read-outs stand apart in the source and are kept apart here.

Columns and labels:
BK channels [1] = conditions: cited from earlier work
[2] = test system: large-conductance Ca^2+-activated K^+ channels (BK channels); assay: Slow blockade: long shut events and burst durations in single BK channels; format: biochemical, goldfish, Carassius auratus
[3] = test system: large-conductance Ca^2+-activated K^+ channels (BK channels); assay: Steady state activation of BK channels; format: biochemical, goldfish, Carassius auratus; conditions: for Po: 20 μM [Sr^2+]i or 5 μM [Ca^2+]i (equipotent); for decrease in V0.5 produced by a 10-fold increase in concentration: slopes of concentration–V0.5 plots
[4] = test system: large-conductance Ca^2+-activated K^+ channels (BK channels); format: biochemical, goldfish, Carassius auratus
BK channels [5] = conditions: T-tubule membrane in lipid bilayers; ref Oberhauser et al., 1988; cited from earlier work
[6] = test system: large-conductance Ca^2+-activated K^+ channels (BK channels); format: biochemical, goldfish, Carassius auratus; conditions: voltage steps −50 to +50 mV; 20 μM Sr^2+ or 5 μM Ca^2+
BK channels [7] = conditions: cultured neurons from rat hypothalamus and brain stem; ref Kang et al., 1994; cited from earlier work

In the case of `[Ba+2]` [Ba^2+, barium ion], the “depth of the binding site within the membrane voltage field (Ba^2+ blockade)” value (from here on “depth”) (BK channels [1]; ref Benham et al., 1985) is given as 0.96, the “depth” value (BK channels [1]; ref Diaz et al., 1996) is given as 0.92 and the “depth” value (BK channels [1]; ref Neyton and Miller, 1988) is given as 0.5–0.7. The “depth” value (BK channels [1]; ref Vergara and Latorre, 1983) was 0.8, the “time constant of long shut events, second exponential” value ([2]; 20 μM [Ba^2+]i, 100 μM [Ca^2+]i, 50 mV, area 162 events) was 359 ms and the “time constant of long shut events, first exponential” value ([2]; 20 μM [Ba^2+]i, 100 μM [Ca^2+]i, 50 mV, area 372 events) was 18.8 ms.
With `[Ca+2].[Cl-].[Cl-]` [Ca^2+] the “Hill coefficient for activation (slope of Hill plot)” value ([3]; 50 mV) was 2.7, the Po ([3]; 50 mV) was 0.315 and the “decrease in V0.5 produced by a 10-fold increase in concentration” value ([3]; eight membrane patches) was about 35 mV. For the same compound, the single-channel current amplitude ([4]; 5 μM [Ca^2+]i, 50 mV (original amplitude)) was 13.2 pA, the single-channel current amplitude ([4]; 5 μM [Ca^2+]i, 100 mV (original amplitude)) was 26.1 pA and the “potency of fast blockade relative to Mg^2+ or Sr^2+” value (BK channels [5]) was over 10 ×. The activation time constant [6] was 1.14 ms, the deactivation time constant [6] was 0.54 ms and the “potency in reducing the outward current amplitude relative to internal Mg^2+” value (BK channels [7]) was ~1,000 ×.
In the case of `[Sr+2]` [Sr^2+, Strontium], the “half-activation voltage V0.5 (Boltzmann distribution)” value ([3]; 5 μM [Sr^2+]i) is reported as 72 mV, the “n (equivalent number of gating charges, Boltzmann distribution)” value ([3]; 5 μM [Sr^2+]i) is reported as 1.6 and the “half-activation voltage V0.5 (Boltzmann distribution)” value ([3]; 20 μM [Sr^2+]i) is reported as 39 mV. For the same compound, the “n (equivalent number of gating charges, Boltzmann distribution)” value ([3]; 20 μM [Sr^2+]i) was 1.4, the “half-activation voltage V0.5 (Boltzmann distribution)” value ([3]; 200 μM [Sr^2+]i) was 1 mV and the “n (equivalent number of gating charges, Boltzmann distribution)” value ([3]; 200 μM [Sr^2+]i) was 1.3. The “half-activation voltage V0.5 (Boltzmann distribution)” value ([3]; 1,000 μM [Sr^2+]i) was −22 mV, the “n (equivalent number of gating charges, Boltzmann distribution)” value ([3]; 1,000 μM [Sr^2+]i) was 1.3 and the “Hill coefficient for activation (slope of Hill plot)” value ([3]; 2nd of +50 to −50 mV series (40 mV)) was 1.3. The “Hill coefficient for activation (slope of Hill plot)” value ([3]; 3rd of +50 to −50 mV series (30 mV)) was 1.2, the “Hill coefficient for activation (slope of Hill plot)” value ([3]; 4th of +50 to −50 mV series (20 mV)) was 1.0 and the “Hill coefficient for activation (slope of Hill plot)” value ([3]; 5th of +50 to −50 mV series (10 mV)) was 0.83. For the same compound, the “Hill coefficient for activation (slope of Hill plot)” value ([3]; 6th of +50 to −50 mV series (−10 mV)) was 0.69, the “Hill coefficient for activation (slope of Hill plot)” value ([3]; 7th of +50 to −50 mV series (−20 mV)) was 0.70 and the “Hill coefficient for activation (slope of Hill plot)” value ([3]; 8th of +50 to −50 mV series (−30 mV)) was 0.79. The “Hill coefficient for activation (slope of Hill plot)” value ([3]; 9th of +50 to −50 mV series (−40 mV)) was 0.78, the “Hill coefficient for activation (slope of Hill plot)” value ([3]; 10th of +50 to −50 mV series (−50 mV)) was 0.72 and the “Hill coefficient for activation (slope of Hill plot)” value ([3]; 50 mV) was 1.6. The Po ([3]; 50 mV) was 0.309, the “Hill coefficient for activation” value ([3]; between −10 and −50 mV) was about 0.7 and the “potency in activating BK channels relative to Ca^2+” value ([3]; from concentration–V0.5 plots, eight membrane patches) was “approximately one-fourth”. The “decrease in V0.5 produced by a 10-fold increase in concentration” value ([3]; eight membrane patches) was about 25 mV, the single-channel current amplitude ([4]; 0.1 mM [Sr^2+]i, 50 mV) was 12.3 pA and the single-channel current amplitude ([4]; 0.1 mM [Sr^2+]i, 100 mV) was 23.7 pA. It also gave a single-channel current amplitude ([4]; 1.0 mM [Sr^2+]i, 50 mV) of 10.9 pA, a single-channel current amplitude ([4]; 1.0 mM [Sr^2+]i, 100 mV) of 19.7 pA and a single-channel current amplitude ([4]; 10 mM [Sr^2+]i, 50 mV) of 8.0 pA. For the same compound, the single-channel current amplitude ([4]; 10 mM [Sr^2+]i, 100 mV) was 9.8 pA, the “Hill coefficient for amplitude reduction (slope of Hill plot)” value ([4]; 1st of 100–30 mV series (100 mV)) was 0.75 and the “Hill coefficient for amplitude reduction (slope of Hill plot)” value ([4]; 2nd of 100–30 mV series (90 mV)) was 0.73. The “Hill coefficient for amplitude reduction (slope of Hill plot)” value ([4]; 3rd of 100–30 mV series (80 mV)) was 0.75, the “Hill coefficient for amplitude reduction (slope of Hill plot)” value ([4]; 4th of 100–30 mV series (70 mV)) was 0.70 and the “Hill coefficient for amplitude reduction (slope of Hill plot)” value ([4]; 5th of 100–30 mV series (60 mV)) was 0.66. The “Hill coefficient for amplitude reduction (slope of Hill plot)” value ([4]; 6th of 100–30 mV series (50 mV)) was 0.62, the “Hill coefficient for amplitude reduction (slope of Hill plot)” value ([4]; 7th of 100–30 mV series (40 mV)) was 0.67 and the “Hill coefficient for amplitude reduction (slope of Hill plot)” value ([4]; 8th of 100–30 mV series (30 mV)) was 0.64. For the same compound, the “Hill coefficients for amplitude reduction” value ([4]; all voltages (30–100 mV), [Sr^2+]i 0.5 mM or higher) was 0.62–0.75, the “internal concentration producing fast and slow blockade” value ([4]; concentration and voltage dependent) was over 100 µM and the “permeation of the channel” value ([4]; no shift in the reversal voltage in the current–voltage relation) was “could scarcely permeate the channel”. The activation time constant [6] was 1.22 ms, the deactivation time constant [6] was 0.61 ms and the “duration of long shut events (slow blockade)” value [2] was 10 to 200 ms. The “probability for the open state during bursts (P[open|burst])” value ([2]; 500 μM [Sr^2+]i at 30 mV) was 0.86, the “time constant of burst durations (τb)” value ([2]; 0.5 mM [Sr^2+]i, 30 mV) was 1,310 ms and the “time constant of long shut events (τl−s)” value ([2]; 0.5 mM [Sr^2+]i, 30 mV) was 75.1 ms. The “time constant of burst durations (τb)” value ([2]; 0.5 mM [Sr^2+]i, 50 mV) was 631 ms, the “time constant of long shut events (τl−s)” value ([2]; 0.5 mM [Sr^2+]i, 50 mV) was 44.7 ms and the “time constant of burst durations (τb)” value ([2]; 2 mM [Sr^2+]i, 30 mV) was 520 ms. For the same compound, the “time constant of long shut events (τl−s)” value ([2]; 2 mM [Sr^2+]i, 30 mV) was 41.3 ms, the “time constant of burst durations (τb)” value ([2]; 2 mM [Sr^2+]i, 50 mV) was 195 ms and the “time constant of long shut events (τl−s)” value ([2]; 2 mM [Sr^2+]i, 50 mV) was 41.0 ms. The “time constant of burst durations (τb)” value ([2]; 10 mM Sr^2+, 50 mV, threshold time for long shut events 3.32 ms) was 51.0 ms, the “time constant of burst durations (τb)” value ([2]; 10 mM Sr^2+, 50 mV, threshold time for long shut events 15.8 ms) was 94.0 ms and the “probability for the open state during bursts (P[open|burst])” value ([2]; 10 mM [Sr^2+]i at 50 mV) was 0.94. The “time constant of burst durations (τb)” value ([2]; 10 mM [Sr^2+]i, 30 mV) was 163 ms, the “time constant of long shut events (τl−s)” value ([2]; 10 mM [Sr^2+]i, 30 mV) was 44.6 ms and the “time constant of long shut events (τl−s)” value ([2]; 10 mM [Sr^2+]i, 50 mV) was 34.4 ms. For the same compound, the “time constant of burst durations (τb)” value ([2]; 10 mM [Sr^2+]i, 50 mV (threshold time for long shut events 6.64 ms)) was 63.2 ms, the τb ([2]; 10 mV, square patch (Fig. 9 C)) was 425 ms and the “slope of log(n 1−s/n s) versus log([Sr^2+]i)” value ([2]; 10 mV, triangle patch) was 0.95. For the same compound, the “slope of log(τb) versus log([Sr^2+]i)” value ([2]; 10 mV, triangle patch) was −1.23, the “slope of log(τl−s) versus log([Sr^2+]i)” value ([2]; 10 mV, triangle patch) was −0.15 and the “slope of log(n 1−s/n s) versus log([Sr^2+]i)” value ([2]; 30 mV, circle patch) was 0.71. The “slope of log(τb) versus log([Sr^2+]i)” value ([2]; 30 mV, circle patch) was −0.74, the “slope of log(τl−s) versus log([Sr^2+]i)” value ([2]; 30 mV, circle patch) was −0.094 and the “slope of log(n 1−s/n s) versus log([Sr^2+]i)” value ([2]; 30 mV, triangle patch) was 1.08. For the same compound, the “slope of log(τb) versus log([Sr^2+]i)” value ([2]; 30 mV, triangle patch) was −0.78, the “slope of log(τl−s) versus log([Sr^2+]i)” value ([2]; 30 mV, triangle patch) was 0.01 and the “slope of log(n 1−s/n s) versus log([Sr^2+]i)” value ([2]; 50 mV, circle patch) was 0.92. The “slope of log(τb) versus log([Sr^2+]i)” value ([2]; 50 mV, circle patch) was −0.74, the “slope of log(τl−s) versus log([Sr^2+]i)” value ([2]; 50 mV, circle patch) was −0.11 and the “zd for slow blockade (Woodhull equation, Eq. 7)” value ([2]; one value per experiment) was 0.95 and 1.84. The “slope of log(n 1−s/n s) versus log([Sr^2+]i)” value ([2]; square patch) was 1.18, the “slope of log(τb) versus log([Sr^2+]i)” value ([2]; square patch) was −1.00 and the “slope of log(τl−s) versus log([Sr^2+]i)” value ([2]; square patch) was −0.05. For the same compound, the “slopes of log(τb) versus log([Sr^2+]i) fitting lines” value ([2]; three experiments) was −0.74 to −1.23 and the “slopes of log(τl−s) versus log([Sr^2+]i) fitting lines” value ([2]; three experiments) was −0.15–0.01.
